Measurements reported in patent US5939385A, “Transglutaminase cross-linkable polypeptides and methods relating thereto” (ZymoGenetics, Inc., priority 1995, dated 1999).
No end group written: not given here.

Target: T1, recombinant Factor XIII (rFXIIIa) (Homo sapiens, UniProt P00488)
T1 construct: made in house
T1 sequence (P00488 39-732 limits assumed): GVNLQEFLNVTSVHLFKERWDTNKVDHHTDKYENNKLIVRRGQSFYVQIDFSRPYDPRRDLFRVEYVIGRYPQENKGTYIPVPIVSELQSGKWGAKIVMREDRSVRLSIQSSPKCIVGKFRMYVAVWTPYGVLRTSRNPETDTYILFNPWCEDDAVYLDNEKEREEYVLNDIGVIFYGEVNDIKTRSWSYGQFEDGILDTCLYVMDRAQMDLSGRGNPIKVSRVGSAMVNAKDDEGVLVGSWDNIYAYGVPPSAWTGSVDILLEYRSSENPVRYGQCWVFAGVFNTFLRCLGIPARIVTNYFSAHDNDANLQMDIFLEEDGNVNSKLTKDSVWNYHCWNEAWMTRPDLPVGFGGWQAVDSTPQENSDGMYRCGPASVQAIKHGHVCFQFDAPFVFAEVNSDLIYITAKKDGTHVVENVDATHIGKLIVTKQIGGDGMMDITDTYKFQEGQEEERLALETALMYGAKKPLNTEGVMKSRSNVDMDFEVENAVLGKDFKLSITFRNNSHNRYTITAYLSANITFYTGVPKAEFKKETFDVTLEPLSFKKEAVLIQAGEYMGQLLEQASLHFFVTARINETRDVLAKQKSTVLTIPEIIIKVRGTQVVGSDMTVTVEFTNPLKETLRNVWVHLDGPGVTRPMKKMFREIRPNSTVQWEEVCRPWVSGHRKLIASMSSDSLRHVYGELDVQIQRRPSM
Assay: Factor XIII cross-linking assay of test polypeptide substrates (HPLC area % vs time)
Format: biochemical
Settings: for Monomer Consumption d[S]/dt (rate of substrate utilization) / Crosslinking d(2[S-])/dt (rate of monomer incorporation into dimers) / Hydrolysis d[-NH3]/dt (hydrolysis = deamidation): initial rate, 2mM substrate, 40 ug/ml rFXIIIa (preactivated), 2.0 U/ml Thrombin, 2.5 mM CaCl2, pH 7.4; for Monomer Consumption d[S]/dt (rate of substrate utilization): 125 mM NaCl, 50 mM TrisHCl; for Hydrolysis %: share of hydrolysis (deamidation) relative to hydrolysis plus crosslinking, same reaction conditions
Procedure: Polypeptides are screened for the ability to form transglutaminase-catalyzed cross-links using a cross-linking assay as described in more detail below. […] Each reaction receives 50 mM CaCl2 to a final concentration of 2.5 mM. A negative control for each test substrate is also prepared in which the reaction lacks a transglutaminase (e.g., Factor XIII). A positive control of the fibrinogen polypeptide (The-Ile-Gly-Glu-Gly-Gln-Gln-His-His-Leu-[…]-Gln-Ala-Gly-Asp-Val) is used for each set of reactions. The reactions are initiated by the addition of 40 μg/ml of transglutaminase (e.g., recombinant Factor XIII) followed by 0.1 unit of bovine thrombin (Enzyme Research Laboratories, Inc., South Bend, Ind.) to each solution, except the negative controls. The reactions are incubated in a 37° C. water bath. A time course of 10 μl samples are taken from each reaction at 0 minutes, 30 minutes, 60 minutes, 120 minutes and overnight. The reactions are stopped by boiling for one minute. After the reactions are terminated, each sample is diluted to 50 μl with 40 μl of TBS buffer (120 mM NaCl, 50 mM Tris (pH 7.6)) and the samples are prepared for HPLC analysis.
Each sample is chromatographed on a C-18 reverse phase HPLC column (Vydac, Hesperia, Calif. or the like) using a gradient of 0-40% B in 30 minutes (Solvent A: 0.05% trifluoroacetic acid (TFA) in water and Solvent B: 0.045% TFA in 80% acetonitrile, 20% water) on a Hewlett Packard 1090 Series II HPLC or the like. The signal is detected at a wavelength of 215 nm. The area % of each reaction product is collected and plotted versus time to determine the rates of polypeptide utilization dimer formation and multimer formation. A deamidation ratio is determined by dividing the deamidation rate by the dimerization rate.
The ability of the test polypeptides to form Factor XIII-induced multimers, and the susceptibility of the polypeptides to deamidation were assessed using the method described in detail below.
Approximately 0.5 mg of lyophilized polypeptide was dissolved in 50 mM Tris, 125 mM NaCl (pH 7.6) to give a final concentration of 2 mM by weight. […] Each test polypeptide solution received 50 mM CaCl2 to a final concentration of 2.5 mM. For each reaction, a negative control lacking Factor XIII was included. A positive control of the fibrinogen polypeptide Thr-Ile-Gly-Glu-Gly-Gln-Gln-His-His-Leu-Gly-Gly-Ala-Lys-Gln-Ala-Gly-Asp-Val was used for each set of reactions. The reactions were initiated by the addition of 40 μg/ml of recombinant Factor XIII followed by 0.1 unit of bovine thrombin (Enzyme Research Laboratories, Inc.) to each solution, except the negative controls. The reactions were incubated in a 37° C. water bath. Samples of 10 μl were taken from each reaction at 0 minutes, 30 minutes, 60 minutes, 120 minutes and overnight. The reactions were stopped by boiling for one minutes. The samples were diluted to 50 μl TBS buffer (120 mM NaCl, 50 mM Tris (pH 7.6)), and the samples were prepared for HPLC analysis.
Each reaction was chromatographed on a C-18 reverse phase HPLC column (Vydac, Hesperia, Calif., or the like) using a gradient of 0-40% B in 30 minutes (solvent A: 0.05% TFA in water and Solvent B: 0.045% TFA in 80% acetonitrile/20% water) on a Hewlett Packard 1090 Series II HPLC. The signal was detected at a wavelength of 215 nm. The area % of each reaction product was collected and plotted versus time to determine the rates of polypeptide utilization and dimer formation. A deamidation ratio was determined by dividing the deamidation rate by the dimerization rate. […] The abbreviations used in Table 1 are as follows: d[S]/dt indicates the rate of substrate utilization, d[S2 ]/dt indicates the rate of dimer formation and (-NH2 /S2) indicates the relative rates of deamidation to dimerization. The initial rates were normalized to that of the fibrinogen polypeptide Thr-Ile-Gly-Glu-Gly-Gln-Gln-His-His-Leu-Gly-Gly-Ala-Lys-Gln-Ala-Gly-Asp-Val. […]

Substance | Monomer Consumption d[S]/dt (rate of substrate utilization) | Crosslinking d(2[S-])/dt (rate of monomer incorporation into dimers) | Hydrolysis d[-NH3]/dt (hydrolysis = deamidation) | Hydrolysis % [%]
EGQHHLGAKQAG [-- EGQ-- HHL-- GAKQAG--] | -6.0 uM (monomer)/min | 3.0 uM (monomer)/min | 5.4 uM (monomer)/min | 64
EGQHHLGGAKQA [-- EGQ-- HHLGGAKQA--] | -10.8 uM (monomer)/min | 9.8 uM (monomer)/min | 0.0 uM (monomer)/min | 0
GEGQHHLGGAKQAG [-- GEGQ-- HHLGGAKQAG--] | -13.1 uM (monomer)/min | 11.2 uM (monomer)/min | 0.4 uM (monomer)/min | 3
GQHHLGAKQ [-- GQ-- HHLG-- AKQ--] | -4.7 uM (monomer)/min | 4.9 uM (monomer)/min | 0.0 uM (monomer)/min | 0
GQHHLGAKQA [-- GQ-- HHL-- GAKQA--] | -8.4 uM (monomer)/min | 8.4 uM (monomer)/min | -0.2 uM (monomer)/min | 0
GQHHLGGAKA [-- GQ-- HHLGGAK-- A--] | -2.4 uM (monomer)/min | 1.8 uM (monomer)/min | 0.8 uM (monomer)/min | 31
GQHHLGGAKQ [-- GQ-- HHLGGAKQ--, Gly-Gln-His-His-Leu-Gly-Gly-Ala-Lys-Gln] | -6.9 uM (monomer)/min | 6.2 uM (monomer)/min | 0.0 uM (monomer)/min | 0
GQHHLGGAKQG [GQ-- HHLGGAKQG] | -4.4 uM (monomer)/min | 4.4 uM (monomer)/min | 0.0 uM (monomer)/min | 0
GVGGQHHLGGAKQVP [GVGGQ-- HHLGGAKQVP] | -9.8 uM (monomer)/min | 7.6 uM (monomer)/min | 0.0 uM (monomer)/min | 0
GVGVPGQHHLGGAKQGVGVP [GVGVPGQ-- HHLGGAKQGVGVP] | -7.3 uM (monomer)/min | 5.6 uM (monomer)/min | 1.7 uM (monomer)/min | 23
IGEGQHHLGGAKQAGD [-- IGEGQ-- HHLGGAKQAGD--] | -12.5 uM (monomer)/min | 14.1 uM (monomer)/min | -1.4 uM (monomer)/min | 0
LSQSKVG [LSQSKVG] | -5.2 uM (monomer)/min | 6.8 uM (monomer)/min | 1.2 uM (monomer)/min | 15
TIGEGQHHLGAKQAGDV [TIGEGQ-- HHL-- GAKQAGDV] | -8.4 uM (monomer)/min | 3.6 uM (monomer)/min | 5.4 uM (monomer)/min | 60
TIGEGQHHLGAKQAGDV [TIGEGQ-- HHLG-- AKQAGDV] | -7.0 uM (monomer)/min | 4.0 uM (monomer)/min | 3.0 uM (monomer)/min | 43
TIGEGQHHLGGAKAGDV [TIGEGQ-- HHLGGAK-- AGDV] | -10.0 uM (monomer)/min | 8.8 uM (monomer)/min | 1.4 uM (monomer)/min | 14
TIGEGQHHLGGAKQAGDV [TIGEGQ-- HHLGGAKQAGDV] | -12.8 uM (monomer)/min | 11.4 uM (monomer)/min | 0.6 uM (monomer)/min | 5
TIGEGQQHHLGGAKQAGDV [TIGEGQQHHLGGAKQAGDV, Thr-Ile-Gly-Glu-Gly-Gln-Gln-His-His-Leu-Gly-Gly-Ala-Lys-Gln-Ala-Gly-Asp-Val, reference compound] | -20.0 uM (monomer)/min | 16.4 uM (monomer)/min | 5.2 uM (monomer)/min | 24
VGGQHHLGGAKQVPG [VGGQ-- HHLGGAKQVPG] | 11.0 uM (monomer)/min | 11.0 uM (monomer)/min | 0.0 uM (monomer)/min | 0
VGQHHLGGAKVPG [VGQ-- HHLGGAKVPG] | -18.0 uM (monomer)/min | 16.2 uM (monomer)/min | 0.0 uM (monomer)/min | 0
VPGVGGQHHLGGAKQVPGVG [VPGVGGQ-- HHLGGAKQVPGVG] | -12.8 uM (monomer)/min | 11.8 uM (monomer)/min | 0.0 uM (monomer)/min | 0
VPGVGLSQSKVGVPGVG [VPGVGLSQSKVGVPGVG] | -32.0 uM (monomer)/min | 15.0 uM (monomer)/min | 12.5 uM (monomer)/min | 45
